Measurements reported in publication PMC7323874, “Vancomycin Resistance Is Overcome by Conjugation of Polycationic Peptides” (Angewandte Chemie (International Ed. in English), 2020).

Tests used:
[1] = test system: E. coli ATCC 25922; type: cell-based; settings: median of at least triplicates on two different plates
Procedure: (§1) Antimicrobial testing – Microdilution
(§2) Antimicrobial testing was performed according to CLSI and EUCAST guidelines in microdilution.8-10 Therefore, all tested substances as well as controls were dissolved in water in different concentrations and serially diluted in MHB II (cation adjusted) on the 96-well plate. A logarithmic growing, overnight culture of the respective bacterial strain was used and adjusted to a McFarland corresponding to 1 × 10^8 cfu/ml. Afterwards the bacterial suspension was diluted to 1 ×10^6 cfu/ml and loaded on the 96-well polypropylene plates, resulting in a final bacterial concentration of 5 × 10^5 cfu/ml. After an incubation at 35 ± 1 °C for 18-20 hours (re-controlled after 24 hours) the MIC was determined as the lowest concentration without visible growth as described previously.11 For direct comparison of the tested substances, all results were calculated in mg/ml and mol/ml afterwards. […]
(§3) Resistance development in S. aureus was determined by passaging bacteria in increasing amounts of vancomycin, FU002 or, as control, fusidic acid. In principle, tubes with twofold dilutions of the compounds in 1 ml Muller Hinton broth were inoculated 1:100 with bacterial suspension. […]
(§4) For the validation of possible side effects provoked by the conjugates, the cytotoxic effect of the lead candidate FU002 on human cells was assessed in a colorimetric viability assay. […]

[2] = test system: P. aeruginosa ATCC 27853; type: cell-based; settings: median of at least triplicates on two different plates
Procedure: as §1, §2
(§5) As further control substance, the glycopeptide antibiotic teicoplanin was evaluated. […] Resistance development in S. aureus was determined by passaging bacteria in increasing amounts of vancomycin, FU002 or, as control, fusidic acid. […]
as §4

[3] = test system: vancomycin-resistant strains (vanA, vanB and vanC); type: cell-based; settings: all values, vanB and vanC resistance types
Procedure: as §1, §2, §5, §4

[4] = test system: human cell lines (blood, liver, kidney); assay: Cytotoxicity, XTT viability assay; type: cell-based; settings: 64 µg/ml, 24 h incubation, three human cell lines (blood, liver, kidney)
[5] = test system: Staphylococcus aureus USA300; assay: Broth microdilution on vancomycin-sensitive strain; type: cell-based
Procedure: as §1, §2, §3, §4

[6] = test system: Staphylococcus aureus USA300 LAC (MRSA) infected mice; assay: In vivo efficacy model in infected mice; settings: female Balb/c mice, FU002 56.4 mg/kg body weight per day

CC(C)C[C@H](C(=O)N[C@H]1C(=O)N[C@@H](CC(N)=O)C(=O)N[C@H]2C(=O)N[C@H]3C(=O)N[C@H](C(=O)N[C@H](C(=O)O)c4cc(O)cc(O)c4-c4cc3ccc4O)[C@H](O)c3ccc(c(Cl)c3)Oc3cc2cc(c3O[C@@H]2O[C@H](CO)[C@@H](O)[C@H](O)[C@H]2O[C@H]2C[C@](C)(N)[C@H](O)[C@H](C)O2)Oc2ccc(cc2Cl)[C@H]1O)N(C)C(=O)C1CCC(CN2C(=O)CC(SC[C@H](NC(=O)[C@H](CCCNC(=N)N)NC(=O)[C@H](CCCNC(=N)N)NC(=O)[C@H](CCCNC(=N)N)NC(=O)[C@H](CCCNC(=N)N)NC(=O)[C@H](CCCNC(=N)N)NC(=O)[C@@H](N)CCCNC(=N)N)C(N)=O)C2=O)CC1 (stereo partly shown) [FU002]
MIC [1]: ≥ 640 µg/mL
MIC [2]: ≥ 640 µg/mL
MIC (minimum inhibitory concentration) [3]: below 4 mg L^−1
cytotoxicity [4]: no relevant cytotoxicity
activity compared with vancomycin (MIC) [5]: at least as active as vancomycin
bacterial burden, colony forming units (CFU) in the liver ([6]; day 4 post infection, p < 0.05, Kruskal-Wallis test): significant reduction of bacterial burden
body weight of infected mice ([6]; i.v. infection, doses every 12 hours, start 2 hours p.i.): No infection‐related body weight loss
